Measured values taken from patent US8778882B2, “Agent for strengthening calcium containing tissue and use thereof” (Hayashibara Co., Ltd., priority 2002, dated 2014).

Experiments:
Type in all cases: cell-based
Mouse MC3T3-E1 cells = assay: Calcium deposition by alizarin red-S staining; parameters: key: +: same strength of red color as a negative control (only medium containing 0.2% (v/v) ethanol); ++: half strength of the positive control; +++: same strength of red color as a positive control (indomethacin); conditions: MC3T3-E1, 20 mM each compound (so in the source), eight days, alizarin red-S red color judgement
From the text: Following Experiment 1 which investigates differentiating pre-osteoblastic cells into osteoblastic cells, some of organic compounds were investigated whether they actually enhance calcium deposition or not. Indomethacin (commercialized by Funakoshi, Co., Ltd., Tokyo, Japan) (positive control), kaempferol (commercialized by Funakoshi, Co., Ltd., Tokyo, Japan), hesperetin (commercialized by Funakoshi, Co., Ltd., Tokyo, Japan), gallic acid (commercialized by Nacalai Tesque, Kyoto, Japan), and coffeic acid (commercialized by Wako Pure Chemical Industries, Osaka, Japan) were selected as organic compounds. Mouse MC3T3-E1 cells were treated with 20 mM each above compound dissolved in 1 ml of α-MEM medium supplemented with 10% (v/v) fetal calf serum and containing 10 mM β-glycerophosphate. Since final ethanol concentration in the medium is 0.2% (v/v), α-MEM medium containing 0.2% (v/v) ethanol was prepared as a negative control. The cells were inoculated for eight days as changing the medium therewith to fresh medium with or without each sample per three days. The cells were applied to measure calcium deposition therein by usual alizarin red-S staining method. Briefly to the cells washed with 1 ml of Dulbecco phosphate buffer saline twice after removing the medium were added 1 ml of 50 (v/v) % ethanol aqueous solution and incubated for 10 minutes. After removing the 50 (v/v) % ethanol aqueous solution, the cells were incubated with 1 ml of distilled water for 10 minutes. After removing the water, the cells were applied with 1 ml of 1% (w/v) alizarin red-S solution, incubated for 10 minutes, and washed with 1 ml of distilled water for three times after removing alizarin red-S solution. Then, the calcium deposition amount was measured in a manner of judging red color on the plate bottom since deposited calcium was stained by the above treatment. The judgement criterion “+” means same strength of red color as a negative control (only medium containing 0.2% (v/v) ethanol), “+++” means same strength of red color as a positive control (indomethacin), and “++” means half strength of the positive control.

[1] = test system: mouse pre-osteoblastic cell MC3T3-E1; assay: Alkaline phosphatase activity in mouse pre-osteoblastic cells; conditions: for activity at 20 µM: Mus musculus
Method: To increase number of osteoblastic cells having calcium-deposition activity is important for increasing bone mass. […] The activity is at low level in pre-osteoblastic cells and at high level in osteoblastic cells differentiated form the pre-osteoblastic cells. […] Since final ethanol concentration in the medium is 0.2% (v/v), α-MEM medium containing 0.2% (v/v) ethanol was prepared as a negative control. The cells were inoculated for eight days as changing the medium therewith to fresh medium with or without each sample per three days. Alkaline phosphatase activity was measured using “Alkaline Phospha B-Test Wako” (commercialized by Wako Pure Chemical Industries, Osaka, Japan) according with Kajii et al (Archives of Oral Biology, Vol. 44, pp. 233-241, (1999)). Briefly, to the above described mouse pre-osteoblastic cells washed with 1 ml of 0.25 M sucrose solution three times after removing the medium were added 0.45 ml of 50 mM carbonate salt buffer (pH9.8) containing 1 mM magnesium chloride and 50 mM sucrose and 0.05 ml of 3.4 mM disodium p-nitrophenyl phosphate in due course. The mixture was incubated at 25° C. for five minutes and admixed with 1.5 ml of 0.6N sodium hydroxide as a reaction terminator. Absorbance 405 nm of p-nitrophenol generated by alkaline phosphatase in the resulting mixture was measured, and the obtained values were used as values as alkaline phosphatase activity. […] The experiment was performed by the method according to Experiment 1 except that culture day in the medium containing each sample was three, six or nine, and concentration of each sample was 5, 10 or 20 μM. […] As a negative control, mediums containing ethanol in the above concentration were prepared for calculating relative activity to the activity of each control.

[2] = test system: mouse pre-osteoblastic cell MC3T3-E1; assay: Calcium deposition amount by Calcium C Test Wako; conditions: Mus musculus, MC3T3-E1; flavonoid comparison, Calcium C Test Wako, relative to 0.2% (v/v) ethanol negative control
From the text: Other flavonoid compounds than kaempferol or hesperetin were investigated where they have the same effect or not. Flavone (commercialized by Kanto Kagaku, Tokyo, Japan), apigenin (commercialized by Funakoshi, Co., Ltd., Tokyo, Japan), flavonol (commercialized by Tokyo Kasei Kogyo, Co., Ltd., Tokyo, Japan), quercetin (commercialized by Kanto Kagaku, Tokyo, Japan), kaempferol (commercialized by Funakoshi, Co., Ltd., Tokyo, Japan), rutin (commercialized by Kanto Kagaku, Tokyo, Japan), flavanone (commercialized by Kanto Kagaku, Tokyo, Japan), naringenin (commercialized by Ardrich Corporation), hesperetin (commercialized by Funakoshi, Co., Ltd., Tokyo, Japan), hesperidin (commercialized by Kanto Kagaku, Tokyo, Japan), chalcone (commercialized by Merk Corporation), fuloretin (commercialized by Sigma Corporation), catechin (commercialized by Sigma Corporation), ipriflavone (commercialized by Daito Corporation, Toyama, Japan), taxifolin (commercialized by Funakoshi, Co., Ltd., Tokyo, Japan), sulfuretin (commercialized by Funakoshi, Co., Ltd.; Tokyo, Japan), or cyanidin (commercialized by Funakoshi, Co., Ltd., Tokyo, Japan) was selected as test samples. Alkaline phosphatase activity was measured by the method of Experiment 1. Calcium deposition was measured by usual method using “Calcium C Test Wako” (commercialized by Wako Pure Chemical Industries, Osaka, Japan), briefly, cultured cells were washed with 1 ml of Dulbecco phosphate buffer saline three times after removing the medium. To the resultant was added 0.5 ml of 2N hydrochloric acid to resolve deposited calcium. To 5 μl of the resultant solution were added 0.5 ml of 0.88M monoethanolamine buffer (pH11) and 0.05 ml of 0.63 mM o-cresolphthalein complexone solution (binding to calcium ion to form chelate complex) containing 69 mM 8-quinolinol and mixed. Calcium amount per one hole of the plate was calculated by measuring absorbance 570 nm of the resultants and standardizing with a standard calcium solution. The judgement of alkaline phosphatase activity or calcium deposition amount of each sample was to calculate the relative activity or the relative calcium deposition amount to the negative control (only medium containing 0.2% (v/v) ethanol) and to compare each other.
The enhancement of calcium deposition between kaempferol and ipripfavone were compared. Test samples and their adding manner were same as Experiment 4. Calcium deposition amount was measured by usual method using “Calcium C Test Wako” (commercialized by Wako Pure Chemical Industries, Osaka, Japan); briefly, cultured cells were washed with 1 ml of Dulbecco phosphate buffer saline three times after removing the medium. To the resultant was added 0.5 ml of 2N hydrochloric acid to resolve deposited calcium. To 5 μl of the resolving solution were added 0.5 ml of 0.88M monoethanolamine buffer (pH11) and 0.05 ml of 0.63 mM o-cresolphthalein complexone solution (binding to calcium ion to form chelate complex) containing 69 mM 8-quinolinol and mixed, Calcium amount per one hole of the plate was calculated by measuring absorbance 570 nm of the resultants and standardizing with a standard calcium solution.
Kaempferol or hesperetin in combination with ipriflavone, or a kind of isoflavones, was investigated whether to enhance calcium deposition or not. Methods for preparing samples and culturing the cells were the same method described in Experiment 1 except culturing the cells for five days, Method for measuring calcium was the same method described in Experiment 3 and 5. Final ethanol concentration of the medium containing each sample was adjusted as same concentration.

[3] = 192 h, MC3T3-E1, 20 mM each compound (so in the source), eight days, relative to 0.2% (v/v) ethanol negative control

Row | Compound | Calcium Deposition Amount (Mouse MC3T3-E1 cells) | Relative Alkaline Phosphatase Activity (%) ([1]; MC3T3-E1, 20 mM each compound (so in the source), eight days, relative to 0.2% (v/v) ethanol negative control) | activity at 20 µM [1, 3] [%] | activity at 20 µM ([1]; MC3T3-E1, flavonoid comparison, method of Experiment 1, relative to 0.2% (v/v) ethanol negative control) [%] | activity at 20 µM [2] [%]
1 | O=C(O)/C=C/c1ccc(O)c(O)c1 [Coffeic Acid, coffeic acid] | + | 97 | – | – | –
2 | O=C(O)c1cc(O)c(O)c(O)c1 [Gallic Acid, gallic acid] | + | – | 79 | – | –
3 | COc1ccc2c(c1)c(CC(=O)O)c(C)n2C(=O)c1ccc(Cl)cc1 [Indomethacin, indomethacin, reference compound] | +++ | – | 142 | – | –
4 | O=c1c(O)c(-c2ccc(O)cc2)oc2cc(O)cc(O)c12 [Kaempferol] | +++ | – | 162 | 162 | 305
